Structures can show the parent of a compound that is named as a salt.
System: spontaneously hypertensive rats (SHR)
Experiment: Antihypertensive activity test: blood pressure and heart rate of spontaneously hypertensive rats (SHR)
Assay type: in vivo, rat
Conditions: 200 mg/kg; for SHR heart rate, time after administration 0 h / SHR heart rate, time after administration 1 h / SHR heart rate, time after administration 2 h / SHR heart rate, time after administration 3 h / SHR heart rate, time after administration 4 h / SHR heart rate, time after administration 5 h / SHR heart rate, time after administration 6 h: N = 8; for SHR blood pressure (SBP), time after administration 1 h / SHR blood pressure (SBP), time after administration 2 h / SHR blood pressure (SBP), time after administration 3 h / SHR blood pressure (SBP), time after administration 4 h / SHR blood pressure (SBP), time after administration 5 h / SHR blood pressure (SBP), time after administration 6 h / Blood pressure (SBP, mmHg) After administration / Heart rate (beat/min) After administration / Blood pressure (SBP, mmHg) Baseline / Heart rate (beat/min) Baseline: n = 8; for Blood pressure (SBP, mmHg) After administration / Heart rate (beat/min) After administration: after administration (6 h M ± SD); for Heart rate Difference (beat/min): after administration minus baseline (6 h); for Blood pressure Difference mmHg: baseline minus after administration (6 h); for Blood pressure (SBP, mmHg) Baseline / Heart rate (beat/min) Baseline: before administration, M ± SD
Experimental: Tested Drugs: Compounds of the Invention. The dosage of all compound was uniformly set to 200 mg/kg.
In the test, changes in the blood pressure before and after the administration were detected, and compared with the basic value, a reduction of SBP ≥20 mmHg after administration was judged as effective antihypertensive effects; and at the same time, changes in the heart rate before and after the administration were detected.
Heart rate was expressed as mean±standard deviation (x±s). The changes of heart rate before and after the administration were compared by using Two-sample equal variance paired t test, and P<0.05 was regarded as the standard of statistically significant difference.

Cc1ccc(C(O)CO)cc1 (stereo not shown) [Compound 12]
SHR heart rate, time after administration 0 h (0 h): 333 ± 44.0 beat/min | Heart rate Difference before and after administration, 1 h: −5 beat/min | SBP Difference before and after administration, 1 h: 3 mmHg | SHR heart rate, time after administration 1 h: 328 ± 47.6 beat/min | SHR blood pressure (SBP), time after administration 1 h: 184 ± 10.6 mmHg | Heart rate Difference before and after administration, 2 h: 8 beat/min | SBP Difference before and after administration, 2 h: 5 mmHg | SHR heart rate, time after administration 2 h: 342 ± 46.9 beat/min | SHR blood pressure (SBP), time after administration 2 h: 182 ± 10.4 mmHg | Heart rate Difference before and after administration, 3 h: 15 beat/min | SBP Difference before and after administration, 3 h: 4 mmHg | SHR heart rate, time after administration 3 h: 348 ± 53.2 beat/min | SHR blood pressure (SBP), time after administration 3 h: 183 ± 9.90 mmHg | Heart rate Difference before and after administration, 4 h: 3 beat/min | SBP Difference before and after administration, 4 h: 9 mmHg | SHR heart rate, time after administration 4 h: 336 ± 54.5 beat/min | SHR blood pressure (SBP), time after administration 4 h: 178 ± 6.61 mmHg | Heart rate Difference before and after administration, 5 h: −3 beat/min | SBP Difference before and after administration, 5 h: 5 mmHg | SHR heart rate, time after administration 5 h: 331 ± 51.0 beat/min | SHR blood pressure (SBP), time after administration 5 h: 182 ± 7.25 mmHg | Heart rate Difference before and after administration, 6 h: 3 beat/min | SBP Difference before and after administration, 6 h: 3 mmHg | SHR heart rate, time after administration 6 h: 336 ± 52.7 beat/min | SHR blood pressure (SBP), time after administration 6 h: 184 ± 12.1 mmHg | Blood pressure (SBP, mmHg) After administration: 181 ± 8.80 mmHg | Heart rate (beat/min) After administration: 336 ± 49.5 beat/min | Heart rate Difference (beat/min): 3 beat/min | Blood pressure Difference mmHg: 6 mmHg | Blood pressure (SBP, mmHg) Baseline: 187 ± 11.9 mmHg | Heart rate (beat/min) Baseline: 333 ± 44.0 beat/min

Cc1cccc(C(O)CO)c1 (stereo not shown) [Compound 3]
SBP Difference before and after administration, 1 h: 18 mmHg | SHR blood pressure (SBP), time after administration 1 h: 180 ± 11.6 mmHg | SBP Difference before and after administration, 2 h: 10 mmHg | SHR blood pressure (SBP), time after administration 2 h: 178 ± 10.9 mmHg | SBP Difference before and after administration, 3 h: 11 mmHg | SHR blood pressure (SBP), time after administration 3 h: 177 ± 13.9 mmHg | SBP Difference before and after administration, 4 h: 8 mmHg | SHR blood pressure (SBP), time after administration 4 h: 180 ± 15.80 mmHg | SBP Difference before and after administration, 5 h: 2 mmHg | SHR blood pressure (SBP), time after administration 5 h: 186 ± 16.0 mmHg | SBP Difference before and after administration, 6 h: 2 mmHg | SHR blood pressure (SBP), time after administration 6 h: 186 ± 17.7 mmHg

[2H]OCC(O[2H])c1cccc(CC)c1 (stereo not shown) [Compound 1-3]
SBP Difference before and after administration, 1 h: 18 mmHg | SHR blood pressure (SBP), time after administration 1 h: 168 ± 6.39 mmHg | SBP Difference before and after administration, 2 h: 21 mmHg | SHR blood pressure (SBP), time after administration 2 h: 165 ± 4.50 mmHg | SBP Difference before and after administration, 3 h: 23 mmHg | SHR blood pressure (SBP), time after administration 3 h: 163 ± 9.15 mmHg | SBP Difference before and after administration, 4 h: 23 mmHg | SHR blood pressure (SBP), time after administration 4 h: 163 ± 13.7 mmHg | SBP Difference before and after administration, 5 h: 22 mmHg | SHR blood pressure (SBP), time after administration 5 h: 164 ± 15.9 mmHg | SBP Difference before and after administration, 6 h: 18 mmHg | SHR blood pressure (SBP), time after administration 6 h: 168 ± 8.78 mmHg

COc1ccc(C(O)C(=O)O)cc1 (stereo not shown) [Compound 17]
SBP Difference before and after administration, 0 h (0 h): 0 mmHg | SBP Difference before and after administration, 1 h: 9 mmHg | SHR blood pressure (SBP), time after administration 1 h: 186 ± 12.4 mmHg | SBP Difference before and after administration, 2 h: 7 mmHg | SHR blood pressure (SBP), time after administration 2 h: 188 ± 12.0 mmHg | SBP Difference before and after administration, 3 h: 14 mmHg | SHR blood pressure (SBP), time after administration 3 h: 181 ± 13.1 mmHg | SBP Difference before and after administration, 4 h: 9 mmHg | SHR blood pressure (SBP), time after administration 4 h: 186 ± 11.4 mmHg | SBP Difference before and after administration, 5 h: 15 mmHg | SHR blood pressure (SBP), time after administration 5 h: 180 ± 11.9 mmHg | SBP Difference before and after administration, 6 h: 9 mmHg | SHR blood pressure (SBP), time after administration 6 h: 186 ± 10.1 mmHg

CC(C)c1cccc(C(O)CO)c1 (stereo not shown) [Compound 9]
SBP Difference before and after administration, 1 h: 2 mmHg | SHR blood pressure (SBP), time after administration 1 h: 192 ± 11.6 mmHg | SBP Difference before and after administration, 2 h: 6 mmHg | SHR blood pressure (SBP), time after administration 2 h: 188 ± 12.1 mmHg | SBP Difference before and after administration, 3 h: 17 mmHg | SHR blood pressure (SBP), time after administration 3 h: 177 ± 12.3 mmHg | SBP Difference before and after administration, 4 h: 14 mmHg | SHR blood pressure (SBP), time after administration 4 h: 180 ± 12.85 mmHg | SBP Difference before and after administration, 5 h: 10 mmHg | SHR blood pressure (SBP), time after administration 5 h: 184 ± 16.0 mmHg | SBP Difference before and after administration, 6 h: 8 mmHg | SHR blood pressure (SBP), time after administration 6 h: 186 ± 17.8 mmHg

CCc1cccc([C@H](O)CO)c1 [Compound 1-2]
SBP Difference before and after administration, 1 h: 10 mmHg | SHR blood pressure (SBP), time after administration 1 h: 176 ± 6.39 mmHg | SBP Difference before and after administration, 2 h: 22 mmHg | SHR blood pressure (SBP), time after administration 2 h: 164 ± 4.50 mmHg | SBP Difference before and after administration, 3 h: 25 mmHg | SHR blood pressure (SBP), time after administration 3 h: 161 ± 9.15 mmHg | SBP Difference before and after administration, 4 h: 23 mmHg | SHR blood pressure (SBP), time after administration 4 h: 163 ± 13.7 mmHg | SBP Difference before and after administration, 5 h: 12 mmHg | SHR blood pressure (SBP), time after administration 5 h: 174 ± 15.9 mmHg | SBP Difference before and after administration, 6 h: 8 mmHg | SHR blood pressure (SBP), time after administration 6 h: 178 ± 8.78 mmHg

COCCc1ccc(OCC(O)CNC(C)C)cc1 (stereo not shown) [Metoprolol Hydrochloride, reference compound]
effect on heart rate while lowering blood pressure: significantly slow down the heart rate | time after administration of lowest value of blood pressure: 3 h | SHR heart rate, time after administration 0 h (0 h): 328 ± 24.5 beat/min | Heart rate Difference before and after administration, 1 h: −44 beat/min | SBP Difference before and after administration, 1 h: 20 mmHg | SHR heart rate, time after administration 1 h: 283 ± 24.4 beat/min | SHR blood pressure (SBP), time after administration 1 h: 166 ± 6.39 mmHg | Heart rate Difference before and after administration, 2 h: −45 beat/min | SBP Difference before and after administration, 2 h: 22 mmHg | SHR heart rate, time after administration 2 h: 283 ± 23.1 beat/min | SHR blood pressure (SBP), time after administration 2 h: 164 ± 4.50 mmHg | Heart rate Difference before and after administration, 3 h: −49 beat/min | SBP Difference before and after administration, 3 h: 25 mmHg | SHR heart rate, time after administration 3 h: 279 ± 22.3 beat/min | SHR blood pressure (SBP), time after administration 3 h: 161 ± 9.15 mmHg | Heart rate Difference before and after administration, 4 h: −48 beat/min | SBP Difference before and after administration, 4 h: 24 mmHg | SHR heart rate, time after administration 4 h: 280 ± 23.0 beat/min | SHR blood pressure (SBP), time after administration 4 h: 163 ± 13.7 mmHg | Heart rate Difference before and after administration, 5 h: −43 beat/min | SBP Difference before and after administration, 5 h: 23 mmHg | SHR heart rate, time after administration 5 h: 285 ± 24.0 beat/min | SHR blood pressure (SBP), time after administration 5 h: 164 ± 15.9 mmHg | Heart rate Difference before and after administration, 6 h: −40 beat/min | SBP Difference before and after administration, 6 h: 18 mmHg | SHR heart rate, time after administration 6 h: 288 ± 28.5 beat/min | SHR blood pressure (SBP), time after administration 6 h: 168 ± 8.78 mmHg | average heart rate slowed by (6 hours after administration): 46 beats/min | Blood pressure (SBP, mmHg) After administration: 164 ± 7.85 mmHg | Heart rate (beat/min) After administration: 282 ± 21.3 beat/min | Heart rate Difference (beat/min): −46 beat/min | blood pressure reduction after administration (at most recorded time points): more than 20 mmHg | Blood pressure Difference mmHg: 23 mmHg | Blood pressure (SBP, mmHg) Baseline: 186 ± 7.87 mmHg | Heart rate (beat/min) Baseline: 328 ± 24.5 beat/min
